{"source": "paper PMC9822133", "about": "“Design, Synthesis and Antiproliferative Evaluation of Bis-Indole Derivatives with a Phenyl Linker: Focus on Autophagy” (Molecules, 2022)", "key": {"HCT116": {"system": "HCT116", "test": "MTT screening assay, HCT116", "type": "cell-based", "conditions": "Homo sapiens, HCT-116, 72 h incubation", "description": "The ability of newly synthesized indole phytoalexins to suppress cell proliferation was screened in vitro on eight cancer cell lines including human colorectal carcinoma (Caco-2 and HCT116), human cervical cancer (HeLa), human breast adenocarcinoma (MCF-7, MDA-MB-231), human alveolar adenocarcinoma (A549) and human leukemic T cell lymphoma (Jurkat), and two non-cancer cell lines (MCF-10A, Cos-7).\nThe cell lines used for this study were Caco-2 (human colorectal adenocarcinoma cell line, American Type Culture Collection, Manassas, VA, USA (ATCC)), HCT116 (human colorectal carcinoma cells European Collection of Authenticated Cell Cultures, Salisbury, UK (ECACC)), HeLa (human cervical tumor cells, ECACC), MCF-7 (human breast tumor cells, ECACC), MDA-MB-231 (human breast tumor cells, ATCC), A549 (human lung carcinoma cells, ATCC), BLM (human melanoma lung metastases, a gift from prof. K. Smetana, Institute of Anatomy, Charles University in Prague), Jurkat (human leukemia cell line, ECACC), Cos-7 (immortalized monkey kidney fibroblasts, ATCC) and MCF-10A (human mammary epithelial cells, ATCC). Caco-2, MCF-7, BLM, Cos-7 and A549 cells were cultured in Dulbecco’s Modified Eagle’s Medium (DMEM) with high glucose and sodium pyruvate (GE Healthcare, Piscataway, NJ, USA); HCT116 lines, HeLa, MDA-MB-231 and Jurkat were cultured in RPMI-1640 medium; and MCF10A cells were cultured in high glucose DMEM/F12 (Dulbecco’s Modified Eagle’s Medium F12). The media were enriched with 10% fetal bovine serum (FBS) and a 1% solution of a mixture of antibiotics and antimycotics 1× HyClone™ (GE Healthcare, Chicago, IL, USA). DMEM/F12 medium was supplemented with epidermal growth factor (EGF) (20 ng/mL final), hydrocortisone (0.5 μg/mL final) and insulin (10 μg/mL final) (Sigma-Aldrich Chemie, Steinheim, Germany). The cells were placed in an incubator at 37 °C with humidified air containing 5% CO2.\nThe MTT assay is a colorimetric method used to quantify the metabolic activity of cells. MTT (3-(4,5-di-methylthiazol-2-yl)2,5-diphenyltetrazolium bromide) (Sigma-Aldrich Chemie, Steinheim, Germany) is reduced by oxidoreductases in the cytosol of cells to light-absorbing formazan, the presence of which can be measured spectrophotometrically and determines the half-maximal inhibitory concentration (IC50). A549 cells were seeded in […] culture plates at a density of 5 × 10^3 per well. […]\nWe also incubated the cells with chloroquine at concentrations of 5–20 µM, which was added 1 h before the addition of the test substance, and cisplatin at concentrations of 3–10 µM. […] After 24 h, the absorbance was measured at a wavelength of 540 nm using an automated Cytation™ 3 Cell Imaging Multi-Mode Reader (Biotek, Winooski, VT, USA). […]"}, "BLM": {"system": "BLM", "test": "MTT screening assay, BLM", "type": "cell-based", "conditions": "Homo sapiens, 72 h incubation"}}}
{"smiles": "CC(C)(C)OC(=O)n1cc(CNC(=O)Nc2ccc(NC(=O)NCc3cn(C(=O)OC(C)(C)C)c4ccccc34)cc2)c2ccccc21", "note": "[Compound 49, N,N′-(1,4-phenylene)bis{N′-[1-(tert-butoxycarbonyl)indol-3-yl]methyl (urea)}]", "values": [{"measurement": "IC50", "setting": "HCT116", "result": "8.8 ± 0.6", "unit": "µM"}, {"measurement": "IC50", "setting": "BLM", "result": "> 100", "unit": "µM"}]}
